Laboratory results published in patent publication US11414385B2, “Compounds and methods for treating, detecting, and identifying compounds to treat apicomplexan parasitic diseases” (The University of Chicago, priority 2015, dated 2022).
pIC50: −log10 of the molar value. Like-named read-outs stand apart in the source and are kept apart here.

Columns and labels:
[1] = tested on: P. falciparum strains D6, TM91-C235, W2, C2B; assay: Malaria SYBR Green I-Based Fluorescence (MSF) Assay; type: cell-based, Plasmodium falciparum; conditions: Plasmodium falciparum
Experimental: Testing of P. falciparum: D6 is a drug sensitive strain from Sierra Leone, C235 is a multi-drug resistant strain from Thailand, W2 is a chloroquine resistant strain from Thailand, and C2B has resistance to a variety of drugs including atovaquone.
D6 is a drug sensitive strain from Sierra Leone, C235 is a multi-drug resistant strain from Thailand, W2 is a chloroquine resistant strain from Thailand, and C2B has resistance to a variety of drugs including atovaquone. These assays were performed as described.
(§1) Compound activity against P. falciparum, a causative agent of malaria, was tested using the Malaria SYBR Green I—Based Fluorescence (MSF) Assay. This; microtiter plate drug sensitivity assay uses the presence of malarial DNA as a measure of parasitic proliferation in the presence of antimalarial drugs or experimental compounds based on modifications of previously described methods by Plouffe et al (20) and Johnson et al. As the intercalation of SYBR Green I dye and its resulting fluorescence is relative to parasite growth, a test compound that inhibits the growth of the parasite will result in a lower fluorescence.
Selected compounds were examined for activity against four strains of P. falciparum: D6 (CDC/Sierra Leone), a drug-sensitive strain readily killed by chloroquine, TM91-C235, a multi-drug resistant strain resistant to chloroquine, W2, a chloroquine resistant strain from Thailand, and C2B has resistance to a variety of drugs including atovaquone.
D6 is a drug sensitive strain from Sierra Leone, C235 is a multi-drug resistant strain from Thailand, W2 is a chloroquine resistant strain from Thailand, and C2B has resistance to a variety of drugs including atovaquone. These assays were performed using standard protocols.
as §1, with “known in the art.” for “by Plouffe et al (20) and Johnson et al.”, “fluorescence. Selected compounds were examined for activity against four strains of P. falciparum: D6 (CDC/Sierra Leone), a drugsensitive strain readily killed by chloroquine, TM91-C235, a multi-drug resistant strain resistant to chloroquine, W2, a chloroquine resistant strain from Thailand, and C2B has resistance to a variety of drugs including atovaquone.” for “fluorescence.”

[2] = tested on: T. gondii tachyzoites (RH-YFP strain); assay: In vitro challenge assay for Toxoplasma tachyzoites (RH-YFP in HFF, fluorescence); type: cell-based, Toxoplasma gondii; conditions: for pIC50: Toxoplasma gondii, RH-YFP, read-out: Tachy IC50
Experimental: Human foreskin fibroblasts (HFF) were cultured on a flat, clear-bottomed, black 96-well plate to 90% to 100% confluence. IMDM (1×, [+] glutamine, [+] 25 mM HEPES, [+] Phenol red, 10% FBS [gibco, Denmark]) was removed from each well and replaced with IMDM-C (1×, [+] glutamine, [+] 25 mM HEPES, [−] Phenol red, 10% FBS)[Gibco, Denmark]). Type I RH parasites expressing Yellow Fluorescent Protein (RH-YFP) were lysed from host cells by double passage through a 27-gauge needle. Parasites were counted and diluted to 32,000/mL in IMDM-C. Fibroblast cultures were infected with 3200 tachyzoites of the Type I RH-YFP strain and returned to incubator at 37° C. for 1-2 hours to allow for infection. Diluted solutions of the compounds were made using IMDM-C, and 20 μl were added to each designated well, with triplicates for each condition. Controls included pyrimethamine/sulfadiazine (current standard of treatment), DMSO only, fibroblast only, and an untreated YFP gradient with 2 fold dilutions of the parasite. Cells were incubated at 37° C. for 72 hours. The plates were read using a fluorimeter (Synergy H4 Hybrid Reader, BioTek) To ascertain the amount of yellow fluorescent protein, in relative fluorescence units (RFU), as a measure of parasite burden after treatment. Compounds were not considered effective or pursued for further analysis if there were no signs of inhibition at 1 μM. Data was collected using Gen5 software and analyzed with Excel.
Protocol adapted from Fomovska, et. al. (18,19). Human foreskin fibroblasts (HFF) were cultured on a flat, clear-bottomed, black 96-well plate to 90% to 100% confluence. IMDM (1×, [+] glutamine, [+] 25 mM HEPES, [+] Phenol red, 10% FBS [gibco, Denmark]) was removed from each well and replaced with IMDM-C (1×, [+] glutamine, [+] 25 mM HEPES, [−] Phenol red, 10% FBS)[gibco, Denmark]). Type I RH parasites expressing Yellow Fluorescent Protein (RH-YFP) were lysed from host cells by double passage through a 27-gauge needle. Parasites were counted and diluted to 32,000/mL in IMDM-C. Fibroblast cultures were infected with 3200 tachyzoites of the Type I RH strain expressing Yellow Fluorescent Protein (RH-YFP) and returned to incubator at 37° C. for 1-2 hours to allow for infection (15). Various concentrations of the compounds were made using IMDM-C, and 20 μl were added to each designated well, with triplicates for each condition. Controls included pyrimethamine/sulfadiazine (current standard of treatment), 0.1% DMSO only, fibroblast only, and an untreated YFP gradient with 2 fold dilutions of the parasite. Cells were incubated at 37° C. for 72 hours. Plates were read using a fluorimeter (Synergy H4 Hybrid Reader, BioTek) to ascertain the amount of yellow fluorescent protein, in relative fluorescence units (RFU), as a measure of parasite burden after treatment. Data was collected using Gen5 software. IC50 was calculated by graphical analysis in Excel.
An initial screening assay of 10 μM, 1 μM, 100 nM, and 10 nM was performed. Compounds were not considered effective or pursued for further analysis if there were no signs of inhibition of tachyzoites at 1 μM. If compounds did appear to be effective at 1 μM, another experiment was conducted to assess effect at 1 μM, 500 nM, 250 nM, 125 nM, 62.5 nM, and 31.25 nM.
Protocol adapted from Fomovska, et. al. (Fomovska A, Huang Q, El Bissati K, Mui E J, Witola W H, Cheng G, et al. Novel N-Benzoyl-2-Hydroxybenzamide Disrupts Unique Parasite Secretory Pathway. Antimicrob Agents Chemother [Internet]. 2012 May [cited 2015 Jul. 8]; 56(5):2666-82; Fomovska A, Wood R D, Mui E, Dubey J P, Ferreira L R, Hickman M R, et al. Salicylanilide inhibitors of Toxoplasma gondii. J Med Chem. 2012 Oct. 11; 55(19):8375-91.). Human foreskin fibroblasts (HFF) were cultured on a flat, clear-bottomed, black 96-well plate to 90% to 100% confluence. […]

[3] = tested on: T. gondii bradyzoites (EGS strain); assay: EGS strain bradyzoite assay (cysts in HFF, dolichos/BAG1 staining); type: cell-based, Toxoplasma gondii; conditions: 5 and 10 μM, in HFF
Experimental: (§2) HFF cells were grown in IMDM (1×, [+] glutamine, [+] 25 mM HEPES, [+] Phenol red, 10% FBS, [Gibco, Denmark]) on removable, sterile glass disks in the bottom of a clear, flat-bottomed 24-well plate. Cultures were infected with 3×10^4 parasites (EGS strain) per well, in 0.5 mL media and plate was returned to incubator at 37° C. overnight. The following day, the media was removed and clear IMDM and compounds were added to making various concentrations of the drug, to a total volume of 0.5 mL. Two wells were filled with media only, as a control. Plates were returned to the 37° C. incubator for 72 hours.
Efficacy was determined following fixation. Staining was used to determine the numbers of cysts in cultures without and with treatment with the test compounds. Cells were fixed using 4% paraformaldehyde and stained with Fluorescein-labeled Dolichos Biflorus Agglutinin, DAPI, and anti-BAG1, and anti-SAG1. Disks were removed and mounted onto glass slides and visualized using microscopy (Nikon Tl7). Slides were also scanned using a CRi Pannoramic Scan Whole Slide Scanner and viewed using Panoramic Viewer Software.
as §2, with “[gibco,” for “[Gibco,”, “2” for “Two”, “72 hours, and checked once every 24” for “72”, “hours. If tachyzoites were visible in the control before 72 hours, the cells were fixed and stained.” for “hours.”
Cells were fixed using 4% paraformaldehyde and stained with Fluorescein-labeled Dolichos Biflorus Agglutinin, DAPI, and BAG1. Disks were removed and mounted onto glass slides and visualized using microscopy (Nikon Tl7). Slides were scanned using a CRi Pannoramic Scan Whole Slide Scanner and viewed using Panoramic Viewer Software. Effects of the compounds were quantified by counting cysts in the controls and treated cells. Cysts and persisting organisms were counted in a representative field of view and then multiplied by a factor determined by the total area of the disk in order to estimate the number of cysts and organisms in each condition.
HFF cells were grown in IMDM (1×, [+] glutamine, [+] 25 mM HEPES, [+] Phenol red, 10% FBS, [gibco, Denmark]) on removable, sterile glass disks in the bottom of a clear, flat-bottomed 24-well plate. Cultures were infected with 3×10^4 parasites (EGS strain) per well, in 0.5 mL media and plate was returned to incubator at 37° C. overnight. The following day, the media was removed and clear IMDM and compounds were added to making various concentrations of the drug, to a total volume of 0.5 mL. 2 wells were filled with media only, as a control. Plates were returned to the 37° C. incubator for 72 hours, and checked once every 24 hours. If tachyzoites were visible in the control before 72 hours, the cells were fixed and stained. Cells were fixed using 4% paraformaldehyde and stained with Fluorescein-labeled Dolichos Biflorus Agglutinin, DAPI, and BAG1. Disks were removed and mounted onto glass slides and visualized using microscopy (Nikon Tl7). Slides were scanned using a CRi Pannoramic Scan Whole Slide Scanner and viewed using Panoramic Viewer Software. Effects of the compounds were quantified by counting cysts in the controls and treated cells. Cysts and persisting organisms were counted in a representative field of view and then multiplied by a factor determined by the total area of the disk in order to estimate the number of cysts and organisms in each condition. Data was collected using Gen5 software. IC50 was calculated by graphical analysis in Excel.

[4] = C2B strain, read-out: SYBR Green C2B IC50
[5] = D6 strain, read-out: Pf D6 IC50
[6] = D6 strain, read-out: SYBR Green D6 IC50
[7] = TM91C235 strain, read-out: SYBR Green C235 IC50
[8] = W2 strain, read-out: SYBR Green W2 IC50

| Molecule | pIC50 [1, 4] | pIC50 [1, 5] | pIC50 [1, 6] | pIC50 [1, 7] | pIC50 [1, 8] | pIC50 [2] | effect on size and number of EGS cysts [3] | effect on tachyzoite replication ([2]; 5 and 10 μM, vs off target control) |
| --- | --- | --- | --- | --- | --- | --- | --- | --- |
| Cc1[nH]c2c(C#N)cnn2c(=O)c1-c1ccc(Oc2ccc(OC(F)(F)F)cc2)cc1 [JAG014, 5-methyl-7-oxo-6-(4-(4-(trifluoromethoxy)phenoxy)phenyl)-4,7-dihydropyrazolo[1,5-a]pyrimidine-3-carbonitrile] | 6.04 | 6.15 | 6.15 | 5.87 | 5.90 | < 6.00 | – | – |
| Cc1[nH]c2cc(-c3ccccc3)nn2c(=O)c1-c1ccc(Oc2ccc(OC(F)(F)F)cc2)cc1 [JAG015, 5-methyl-2-phenyl-6-(4-(4-(trifluoromethoxy)phenoxy)phenyl) pyrazolo[1,5-a]pyrimidin-7(4H)-one] | < 4.70 | < 4.70 | < 4.70 | < 4.70 | < 4.70 | < 6.00 | – | – |
| Cc1[nH]c2c(c(=O)c1-c1ccc(Oc3ccc(Cl)cc3)cc1)CCCC2 [JAG50, 3-(4-(4-chlorophenoxy)phenyl)-2-methyl-5,6,7,8-tetrahydroquinolin-4(1H)-one] | – | 7.33 | – | – | – | 7.26 | – | – |
| Cc1[nH]c2ncnn2c(=O)c1-c1ccc(Oc2ccc(OC(F)(F)F)cc2)cc1 [MJM136, 5-methyl-6-(4-(4-(trifluoromethoxy)phenoxy)phenyl)-[1,2,4]triazolo[1,5-a]pyrimidin-7(4H)-one] | 6.42 | 6.70 | 6.70 | 6.24 | 6.26 | 5.00 to 6.00 | – | – |
| Vivoporter-PMOs: "Vivo-PMO (Vivo porter linked to morpholinos) to knock down cytochrome b"; sequence 5′ AGTGTTCTCGAAACCATGCTAACAC 3′ (SEQ ID NO: 5) (all phosphorodiamidate morpholino (PMO); Vivo-Porter delivery moiety attached to morpholino, further chemistry not fully specified; listed as Homo sapiens) [reference compound] | – | – | – | – | – | – | small effect | modest effect |
